Experimental data from EPA's ToxValDB 9.5 (doi:10.2903/j.efsa.2015.3943).

Assays:
[1] = system: Rattus norvegicus; conditions: oral
[2] = system: Oryctolagus sp.; conditions: developmental; development
[3] = system: Anas platyrhynchos
[4] = system: Canidae; conditions: subchronic; duration: 90 days; oral; Dog Other
[5] = system: Colinus virginianus
[6] = system: Mus musculus

## CCCCOC(=O)[C@@H](C)Oc1ccc(Oc2ccc(C#N)cc2F)cc1 [Cyhalofop-butyl]
[1]; acute, mortality
  LD50: > 5000 mg/kg-day
[1]; subchronic, duration: 90 days
  NOAEL: 3 mg/kg-day
[2]
  NOAEL: 40 mg/kg-day
[3]; acute, oral, unspecified, mortality
  LD50: > 2250 mg/kg-day
[3]; reproductive, reproduction
  NOEC: 80 mg/kg-day
[3]; short-term, oral, feed, mortality
  LC50: > 5620 mg/kg
[4]
  NOAEL: 3 mg/kg-day
[5]; acute, oral, diet, mortality
  LC50: > 5620 mg/kg
[5]; acute, oral, mortality
  LD50: > 2250 mg/kg-day
[5]; reproduction developmental, reproduction
  NOEC: 80 mg/kg-day
[6]; chronic, duration: 78 weeks
  NOAEL: 0.8 mg/kg-day
[6]; subchronic, duration: 90 days, oral
  NOAEL: 3 mg/kg-day
